Assay results from US7071190B2, “Inhibitors to tubulin polymerization” (Rigel Pharmaceuticals, Inc., priority 2002, dated 2006).

Tested on: A549 cells
Assay: Bromodeoxyuridine (BrdU) proliferation assay
Format: cell-based, human
Settings: for IC50: Homo sapiens, A549, 48 h, BrdU ELISA 48 hours after addition of compound, tested 0.03-10 uM, cell line not given (A549 method; SW-480 and MDA-MB-231 also used), read-out: Assay Result (IC50μM); for Activity ranking: particularly active examples of the compounds of the invention / Activity ranking: most active compounds of the invention: antiproliferative activity
Experimental: In order to determine the antiproliferative activity of microtubule inhibitors, A549 cells were plated in 96 well plates at 2000 cells/well 24 hours prior to the addition of a compound of the invention in 80 ul growth media (F12K, 10% FBS, Pen/Strep). Prior to addition to cells, compounds were solubilized in 100% DMSO to 5 mM and serially diluted in 6 semi-log steps in 100% DMSO. The diluted compounds were added to cells by two 15.8-fold dilution steps, the first being a dilution into a 23% ethanol/H2O mixture and the second being a dilution into growth media. Finally, these dilutions were followed by a 1:1 dilution onto cells. The resulting final solvent concentration was 0.2% DMSO/0.75% ethanol. Compounds were tested at final concentrations of 10, 3, 1, 0.3, 0.1 and 0.03 uM. Forty-eight hours after the addition of compound, the effects on cellular proliferation were measured using a cell proliferation BrdU ELISA (Roche Molecular Biochemicals, Cat.#1 669 915).

Row | Compound | IC50 | Activity ranking: particularly active examples of the compounds of the invention | Activity ranking: most active compounds of the invention
1 | Cc1ccc(-c2cc3ncnc(NNC(N)=S)c3s2)cc1 [Compound 30] | 1.97 µM | particularly active | 
2 | Cc1ccc(-c2cc3ncnc(NNC(=S)Nc4ccccc4)c3s2)cc1 [Compound 31] | 0.369 µM | particularly active | most active
3 | COc1ccc(-c2cc3ncnc(NNC(=S)Nc4ccccc4)c3s2)cc1 [Compound 33] | 0.155 µM | particularly active | most active
4 | S=C(NNc1ncnc2cc(-c3ccc(Cl)cc3)sc12)Nc1ccccc1 [Compound 34] | 1.5 µM | particularly active | 
5 | S=C(NNc1ncnc2cc(-c3cccc(Cl)c3)sc12)Nc1ccccc1 [Compound 35] | 2.79 µM | particularly active | 
6 | Cc1ccc(-c2cc3ncnc(NNC(=S)NC4CC4)c3s2)cc1 [Compound 38] | 0.121 µM | particularly active | most active
7 | S=C(NNc1ncnc2cc(-c3cccc(Cl)c3)sc12)NC1CC1 [Compound 42] | 0.146 µM | particularly active | most active
8 | Cc1cccc(-c2cc3ncnc(NNC(=S)NC4CCCC4)c3s2)c1 [Compound 46] | 0.256 µM | particularly active | most active
9 | Cc1cccc(-c2cc3ncnc(NNC(=S)N[C@@H]4CCC[C@H]4OCc4ccccc4)c3s2)c1 [Compound 47] | 7.16 µM | particularly active | 
10 | Cc1cccc(-c2cc3ncnc(NNC(=S)NCCCO)c3s2)c1 [Compound 48] | 1.43 µM | particularly active | 
11 | Cc1cccc(-c2cc3ncnc(NNC(=S)NCC(O)CO)c3s2)c1 (centres unmarked) [Compound 49] |  | particularly active | 
12 | Cc1cc(C)cc(-c2cc3ncnc(NNC(=S)Nc4ccccc4)c3s2)c1 [Compound 50] | 0.927 µM | particularly active | most active
13 | Cc1ccc(-c2cc3ncnc(NNC(=S)Nc4ccccc4)c3s2)cc1C [Compound 51] | 0.622 µM | particularly active | most active
14 | S=C(NNc1ncnc2cc(-c3ccc4c(c3)OCO4)sc12)Nc1ccccc1 [Compound 52] |  | particularly active | 
15 | Cc1ccc(-c2cc3ncnc(NNC(=S)NC4CC4)c3s2)cc1C [Compound 55] | 0.15 µM | particularly active | most active
16 | S=C(NNc1ncnc2cc(-c3ccc4c(c3)OCO4)sc12)NC1CC1 [Compound 56] |  | particularly active | 
17 | S=C(NCc1ccccc1)NNc1ncnc2cc(-c3ccccc3)sc12 [Compound 57] | 0.23 µM | particularly active | most active
18 | S=C(NCCc1ccccc1)NNc1ncnc2cc(-c3ccccc3)sc12 [Compound 58] | 1.11 µM | particularly active | 
19 | S=C(NCC1CCCO1)NNc1ncnc2cc(-c3ccccc3)sc12 (centres unmarked) [Compound 63] | 0.211 µM | particularly active | most active

Row | Compound | IC50 | Activity ranking: particularly active examples of the compounds of the invention | Activity ranking: most active compounds of the invention
20 | S=C(NC[C@H]1CCCO1)NNc1ncnc2cc(-c3ccccc3)sc12 [Compound 64] | 0.188 µM | particularly active | most active
21 | S=C(NC[C@@H]1CCCO1)NNc1ncnc2cc(-c3ccccc3)sc12 [Compound 65] | 0.134 µM | particularly active | most active
22 | S=C(NCCN1CCCCC1)NNc1ncnc2cc(-c3ccccc3)sc12 [Compound 67] | 18.6 µM | particularly active | 
23 | S=C(NCCN1CCOCC1)NNc1ncnc2cc(-c3ccccc3)sc12 [Compound 68] | 6.03 µM | particularly active | 
24 | S=C(NCc1ccco1)NNc1ncnc2cc(-c3ccccc3)sc12 [Compound 69] | 0.093 µM | particularly active | most active
25 | CNC(=S)NNc1ncnc2cc(-c3ccccc3)sc12 [Compound 70] | 1.61 µM | particularly active | 
26 | CCCNC(=S)NNc1ncnc2cc(-c3ccccc3)sc12 [Compound 71] | 0.02 µM | particularly active | most active
27 | CC(C)NC(=S)NNc1ncnc2cc(-c3ccccc3)sc12 [Compound 72] | 0.024 µM | particularly active | most active
28 | COCCNC(=S)NNc1ncnc2cc(-c3ccccc3)sc12 [Compound 73] | 0.202 µM | particularly active | most active
29 | COCCCNC(=S)NNc1ncnc2cc(-c3ccccc3)sc12 [Compound 74] | 0.054 µM | particularly active | most active
30 | COC(=O)CCNC(=S)NNc1ncnc2cc(-c3ccccc3)sc12 [Compound 76] | 0.187 µM | particularly active | most active
31 | Cc1cccc(-c2cc3ncnc(NNC(=S)NCC4CCCO4)c3s2)c1 (centres unmarked) [Compound 79] | 0.719 µM | particularly active | most active
32 | Cc1cccc(-c2cc3ncnc(NNC(=S)NC[C@@H]4CCCO4)c3s2)c1 [Compound 80] | 0.151 µM | particularly active | most active
33 | COc1cccc(-c2cc3ncnc(NNC(=S)NCC4CCCO4)c3s2)c1 (centres unmarked) [Compound 81] |  | particularly active | 
34 | Cc1cccc(-c2cc3ncnc(NNC(=S)NCC4COC(C)(C)O4)c3s2)c1 (centres unmarked) [Compound 82] |  | particularly active | 
35 | Cc1cccc(-c2cc3ncnc(NNC(=S)NCc4ccco4)c3s2)c1 [Compound 83] | 0.127 µM | particularly active | most active
36 | CCNC(=S)NNc1ncnc2cc(-c3cccc(C)c3)sc12 [Compound 84] | 0.113 µM | particularly active | most active
37 | CCCNC(=S)NNc1ncnc2cc(-c3cccc(C)c3)sc12 [Compound 85] | 0.044 µM | particularly active | most active
38 | Cc1cccc(-c2cc3ncnc(NNC(=S)NC(C)C)c3s2)c1 [Compound 86] | 0.026 µM | particularly active | most active
